Data published in patent US10975079B2, “4-amino-3-phenylamino-6-phenylpyrazolo[3,4-d]pyrimidine derivatives for use as BCRP inhibitors in therapeutic treatments” (SCANDION ONCOLOGY A/S, priority 2015, dated 2021).

Columns and labels:
BCRP = target: T1, BCRP (Homo sapiens, UniProt Q9UNQ0); assay: BCRP fluorimetric inhibition assay, Hoechst 33342 substrate, recombinant CHO-K1 cells; type: cell-based; conditions: Hoechst 33342 (5 μm) substrate, 20 min at 37° C., fluorimetry
T1 construct: expressed in transfected cells; host or cells: CHO-K1
T1 sequence (Q9UNQ0 1-655): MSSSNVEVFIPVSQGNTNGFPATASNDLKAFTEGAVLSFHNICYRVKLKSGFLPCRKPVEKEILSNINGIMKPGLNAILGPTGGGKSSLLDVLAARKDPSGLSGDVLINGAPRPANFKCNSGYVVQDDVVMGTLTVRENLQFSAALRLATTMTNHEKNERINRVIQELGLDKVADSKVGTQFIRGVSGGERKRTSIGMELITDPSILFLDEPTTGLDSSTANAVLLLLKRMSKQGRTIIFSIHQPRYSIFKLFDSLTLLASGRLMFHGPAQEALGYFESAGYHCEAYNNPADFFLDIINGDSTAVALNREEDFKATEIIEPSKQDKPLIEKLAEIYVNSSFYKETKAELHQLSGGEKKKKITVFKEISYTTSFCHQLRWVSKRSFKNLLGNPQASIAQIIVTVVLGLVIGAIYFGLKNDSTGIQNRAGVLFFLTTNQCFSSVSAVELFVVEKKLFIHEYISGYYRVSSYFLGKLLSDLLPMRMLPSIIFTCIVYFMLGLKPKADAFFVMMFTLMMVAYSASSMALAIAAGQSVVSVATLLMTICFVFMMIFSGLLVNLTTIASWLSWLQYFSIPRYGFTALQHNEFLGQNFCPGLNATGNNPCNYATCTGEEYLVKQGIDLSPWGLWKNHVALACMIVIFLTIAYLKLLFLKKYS
Method: The IC-50 value of OBR 5-340 and MS 112 were determined according to the method described by Paturi D. K, et al in Int. J. Pharm. (2010), 384: 32-38. The source used for the determination was human recombinant CHO-K1 cells, while Hoechst 33342 (5 μm) was used as the substrate. The cells were incubated for 20 min at 37° C. and the detection was accomplished by fluorimetry.
Fluorimetric Inhibition Assay:
The percent of control is calculated using the following equation.
In this formula, “Compound” is the individual reading in the presence of the test compound. “T1” is the mean reading in the absence of the test compound. Background is the mean reading in the presence of the highest effective concentration of the reference inhibitor.
The percent of inhibition is calculated by subtracting the percent of control from 100. The IC50 value (concentration causing a half-maximal inhibition of the control value) is determined by non-linear regression analysis of the concentration-response curve using the Hill equation.

CYP1A = assay: Cytochrome P450 inhibition (DMPK studies); type: in vitro ADME
CYP2B6 [1] = target: T2, CYP2B6 (Homo sapiens, UniProt P20813); assay: Cytochrome P450 inhibition (DMPK studies); type: in vitro ADME
T2 sequence (P20813 1-491): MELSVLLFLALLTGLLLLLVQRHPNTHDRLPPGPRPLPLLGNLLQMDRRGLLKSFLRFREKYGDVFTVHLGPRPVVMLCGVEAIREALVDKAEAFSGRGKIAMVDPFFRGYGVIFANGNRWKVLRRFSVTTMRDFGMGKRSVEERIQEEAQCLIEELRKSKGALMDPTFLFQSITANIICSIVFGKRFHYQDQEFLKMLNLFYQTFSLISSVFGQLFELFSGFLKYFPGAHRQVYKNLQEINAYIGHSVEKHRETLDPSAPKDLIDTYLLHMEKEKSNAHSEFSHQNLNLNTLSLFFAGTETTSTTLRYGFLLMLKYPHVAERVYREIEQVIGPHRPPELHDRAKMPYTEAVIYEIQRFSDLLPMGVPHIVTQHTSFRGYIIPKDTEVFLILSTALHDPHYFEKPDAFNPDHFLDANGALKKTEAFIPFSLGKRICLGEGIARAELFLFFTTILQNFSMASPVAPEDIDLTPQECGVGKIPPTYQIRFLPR

CYP2C19 = CYP2C19 (Homo sapiens, UniProt P33261); assay: Cytochrome P450 inhibition (DMPK studies); type: in vitro ADME
Chain of CYP2C19 (P33261 whole entry): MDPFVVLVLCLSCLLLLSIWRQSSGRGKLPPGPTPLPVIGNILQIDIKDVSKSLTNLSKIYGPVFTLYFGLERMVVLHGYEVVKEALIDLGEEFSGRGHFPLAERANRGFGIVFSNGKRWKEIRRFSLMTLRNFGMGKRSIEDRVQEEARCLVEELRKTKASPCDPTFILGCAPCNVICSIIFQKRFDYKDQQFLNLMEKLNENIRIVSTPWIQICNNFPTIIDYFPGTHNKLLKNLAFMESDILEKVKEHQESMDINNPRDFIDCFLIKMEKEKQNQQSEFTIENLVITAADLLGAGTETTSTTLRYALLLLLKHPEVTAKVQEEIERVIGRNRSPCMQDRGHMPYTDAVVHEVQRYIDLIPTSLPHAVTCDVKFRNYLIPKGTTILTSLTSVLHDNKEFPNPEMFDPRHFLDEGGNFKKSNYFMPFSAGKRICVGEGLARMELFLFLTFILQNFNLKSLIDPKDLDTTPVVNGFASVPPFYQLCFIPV
Description: (§1) Also no induction of CYP1A2, CYP2B6, and CYP3A4 could be found.

CYP2C8 = target: T3, CYP2C8 (Homo sapiens, UniProt P10632); assay: Cytochrome P450 inhibition (DMPK studies); type: in vitro ADME
T3 sequence (P10632 1-490): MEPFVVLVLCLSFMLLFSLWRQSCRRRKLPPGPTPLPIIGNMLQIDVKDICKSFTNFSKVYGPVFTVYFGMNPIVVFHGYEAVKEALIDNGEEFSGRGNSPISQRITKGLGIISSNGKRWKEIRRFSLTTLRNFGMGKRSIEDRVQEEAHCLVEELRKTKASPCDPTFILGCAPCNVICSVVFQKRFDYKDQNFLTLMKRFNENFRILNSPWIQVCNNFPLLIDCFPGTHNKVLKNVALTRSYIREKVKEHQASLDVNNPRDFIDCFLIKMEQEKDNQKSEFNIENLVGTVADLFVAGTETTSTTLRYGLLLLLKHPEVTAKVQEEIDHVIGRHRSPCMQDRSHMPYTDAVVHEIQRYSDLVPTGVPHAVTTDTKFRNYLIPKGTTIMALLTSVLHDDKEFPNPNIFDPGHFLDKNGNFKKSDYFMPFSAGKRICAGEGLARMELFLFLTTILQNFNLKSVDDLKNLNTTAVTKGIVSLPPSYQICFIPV
Description: as §1

CYP2C9 = CYP2C9 (Homo sapiens, UniProt P11712); assay: Cytochrome P450 inhibition (DMPK studies); type: in vitro ADME
Chain of CYP2C9 (P11712 whole entry): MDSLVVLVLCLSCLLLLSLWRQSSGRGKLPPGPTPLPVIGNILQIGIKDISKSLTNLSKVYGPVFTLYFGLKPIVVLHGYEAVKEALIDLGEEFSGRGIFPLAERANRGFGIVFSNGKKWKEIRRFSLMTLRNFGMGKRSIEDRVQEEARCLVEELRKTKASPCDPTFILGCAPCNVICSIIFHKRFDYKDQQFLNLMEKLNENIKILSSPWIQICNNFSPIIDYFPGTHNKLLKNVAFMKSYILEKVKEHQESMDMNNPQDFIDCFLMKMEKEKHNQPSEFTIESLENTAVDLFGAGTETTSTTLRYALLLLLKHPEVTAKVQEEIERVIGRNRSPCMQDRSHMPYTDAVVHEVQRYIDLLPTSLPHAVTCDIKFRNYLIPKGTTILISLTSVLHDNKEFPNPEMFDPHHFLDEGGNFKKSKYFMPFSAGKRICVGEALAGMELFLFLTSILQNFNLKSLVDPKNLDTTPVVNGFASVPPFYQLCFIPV
Description: as §1

CYP2D6 = CYP2D6 (Homo sapiens, UniProt P10635); assay: Cytochrome P450 inhibition (DMPK studies); type: in vitro ADME
Chain of CYP2D6 (P10635 whole entry): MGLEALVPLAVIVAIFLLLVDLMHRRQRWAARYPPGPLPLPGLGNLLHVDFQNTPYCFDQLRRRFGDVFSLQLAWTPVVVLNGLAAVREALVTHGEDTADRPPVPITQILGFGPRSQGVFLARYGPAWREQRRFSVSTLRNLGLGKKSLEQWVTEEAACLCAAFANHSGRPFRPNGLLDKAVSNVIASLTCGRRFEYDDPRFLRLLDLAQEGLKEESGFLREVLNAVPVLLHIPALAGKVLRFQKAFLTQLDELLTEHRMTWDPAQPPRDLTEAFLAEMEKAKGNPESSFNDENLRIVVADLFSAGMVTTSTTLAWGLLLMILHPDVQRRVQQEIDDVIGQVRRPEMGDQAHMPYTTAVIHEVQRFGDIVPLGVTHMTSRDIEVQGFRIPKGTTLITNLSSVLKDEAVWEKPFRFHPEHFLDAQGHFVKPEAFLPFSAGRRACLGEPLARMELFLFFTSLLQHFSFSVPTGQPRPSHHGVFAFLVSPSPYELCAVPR
Description: as §1

CYP3A = assay: Cytochrome P450 inhibition (DMPK studies); type: in vitro ADME
Description: as §1

CYP1A2 = assay: Cytochrome P450 induction (DMPK studies); type: in vitro ADME
Description: as §1

CYP2B6 [2] = assay: Cytochrome P450 induction (DMPK studies); type: in vitro ADME
Description: as §1

CYP3A4 = assay: Cytochrome P450 induction (DMPK studies); type: in vitro ADME
Description: as §1

Nc1nc(-c2ccc(OC(F)(F)F)cc2)nc2[nH]nc(Nc3ccccc3)c12 [MS-112, 4-amino-3-phenylamino-6-[4-(trifluormethoxy)-phenyl]pyrazolo[3,4-d]pyrimidine]
IC50 (BCRP): ~100 µM

Nc1nc(-c2ccccc2)nc2[nH]nc(Nc3ccc(C(F)(F)F)cc3)c12 [OBR-5-340, 4-amino-3-(4-trifluormethyl-phenyl)amino-6-phenylpyrazolo[3,4-d]pyrimidine]
IC50 (BCRP): 1.7 µM
inhibition of CYP1A (CYP1A): does not inhibit
inhibition of CYP2B6 (CYP2B6 [1]): does not inhibit
inhibition of CYP2C19 (CYP2C19): does not inhibit
inhibition of CYP2C8 (CYP2C8): does not inhibit
inhibition of CYP2C9 (CYP2C9): does not inhibit
inhibition of CYP2D6 (CYP2D6): does not inhibit
inhibition of CYP3A (CYP3A): does not inhibit
induction of CYP1A2 (CYP1A2): no induction
induction of CYP2B6 (CYP2B6 [2]): no induction
induction of CYP3A4 (CYP3A4): no induction
